Holding throughout (experiment): growth of human tumour cells (NCI), 48 h
The test system of test [1] is MCF7 breast.
Test [2] relates to HOP-92 NSCLC.
Test [3] deals with NCI-H226 lung.
In test [4] the test system is COLO 205 colon.
Test [5] has as its system HL-60(TB) leukemia.
For test [6], the system named is TK-10 renal.
For test [7], the system named is KM12 colon.
For test [8], the system named is EKVX NSCLC.
Test [9] deals with OVCAR-5 ovarian.
Test [10] deals with OVCAR-4 ovarian.

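Tested at 5 concentrations; 48 h exposure; 96-well plates; endpoints linearly interpolated, else capped at highest concentration. Here, GI50 denotes the concentration required for 50% inhibition of growth. TGI marks complete inhibition of growth.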

For the compound `O=C(O)CC1OCC=C2CN3CCC45c6ccccc6NC4C1C2CC35` (stereo not drawn), the TGI in test [1], in test [2], in [3], in [4], in test [5] and in test [6] was over 100 µM throughout. Also, the TGI in test [7], in [8], in [9] and in test [10] was over 100 µM each time.
Regarding `CC1CN1CC(O)C(O)CN1CC1C` (stereo not drawn), the GI50 in test [1] is 0.427 µM; in test [2] it was 6.12 µM; in test [3], 5.23 µM; in test [4], 5.45 µM; in test [5], 0.305 µM; in test [6], 7.7 µM. In addition, the GI50 in test [7] was 7.37 µM; in [8], 13.8 µM; in test [9], 13.4 µM; in test [10], 6.18 µM. For the same compound, the TGI was 36.6 µM in test [1]; over 28.6 µM in test [2]; 50.1 µM in test [3]; over 38.5 µM in test [4]; 20.1 µM in [5]; 65.7 µM in [6]. Moreover, the TGI in test [7] is 23 µM; in test [8], over 80.6 µM; in [9] it was over 85.1 µM; in [10], over 100 µM.
Regarding `CCS(=O)(=O)c1ccc(OC)c(Nc2ncc(-c3cccc(OC)c3)o2)c1`, the GI50 in test [1] was over 18.3 µM; in test [2], 2.76 µM; in test [3], 4.65 µM; in test [4] it was 10.3 µM; in [5], 16.4 µM; in test [6], 6.5 µM. In addition, the GI50 is 1.06 µM in [7], 18.9 µM in test [8], 9.03 µM in test [9] and 13.5 µM in test [10]. For the same compound, the TGI in test [1] was over 25 µM; in test [2], 9.17 µM; in [3] it was over 23.6 µM; in test [4] it was over 25 µM; in test [5] it was over 25 µM; in [6] it was 18.6 µM. Moreover, the TGI in test [7], in test [8], in test [9] and in test [10] was over 25 µM throughout.
For `CCC#CC[C@H]1C/C=C2/C(=O)C=C[C@@H]2C/C=C\CCCC(=O)O1`, the GI50 was 0.203 µM in test [1]; 1.94 µM in test [2]; 1.27 µM in test [3]; 0.961 µM in [4]; 1.07 µM in test [5]; 1.74 µM in test [6]. The GI50 in test [7] is 0.848 µM; in test [8], 1.9 µM; in [9], 1.74 µM; in [10], 1.5 µM. Moreover, the TGI in test [1] turned out to be 5.82 µM; in [2] it was 6.33 µM; in test [3] it was 5.26 µM; in test [4], 2.1 µM; in test [5] it was 4.23 µM; in test [6] it was 4.59 µM. Moreover, the TGI amounted to 2.16 µM in [7], 7.42 µM in test [8], 6.92 µM in test [9] and 7.94 µM in [10].
On to `COc1ccc2c(c1)C=C([N+](=O)[O-])C(C1OC(C)(C)OC1C1COC(C)(C)O1)O2` (stereo not drawn), for which the TGI was 9.12 µM in test [1]; 37.8 µM in test [2]; 21.6 µM in [3]; 30 µM in [4]; 5.49 µM in test [5]; 32.4 µM in test [6]. The TGI in test [7] was 4.31 µM; in test [8], 21.2 µM; in test [9], 20.7 µM; in test [10], 21.3 µM.
Consider `CCOC(=O)c1c(CN2CCN(c3ccccc3)CC2)n(-c2ccccc2)c2cc(Br)c(O)cc12`, for which the GI50 is 4.01 µM in [1]; 2.98 µM in test [2]; 15.4 µM in test [3]; 21.3 µM in test [4]; 4.12 µM in [5]; 25 µM in test [6]. Besides, the GI50 in test [7] was 8.49 µM; in test [8], 11.2 µM; in [9], 9.98 µM; in [10], 8.63 µM. Moreover, the TGI in test [1] was 47.5 µM; in [2] it was 11.7 µM; in test [3], 30.9 µM; in test [4], 41.7 µM; in test [5], over 100 µM; in test [6], 58.9 µM. Also, the TGI in test [7] is 39.9 µM; in test [8], 36.1 µM; in test [9], 44.8 µM; in test [10], 24.6 µM.
`CCCCN=C(N)c1ccc(OCCSCCOc2ccc(C(N)=NCCCC)cc2)cc1`: the GI50 in test [1] was 3.34 µM; in [2], 1.44 µM; in test [3] it was 65.4 µM; in [4], 3.1 µM; in [5], 5.97 µM; in test [6] it was 66.6 µM. For the same compound, the GI50 is 3.62 µM in test [7], 0.96 µM in test [8], 46.1 µM in test [9] and 3.94 µM in [10]. In addition, the TGI in [1] is over 100 µM; in test [2], 14.6 µM; in [3], over 100 µM; in test [4] it was 15 µM; in [5], 30 µM; in [6], over 100 µM. Further, the TGI is 19.9 µM in [7], over 100 µM in test [8], over 100 µM in [9] and over 100 µM in test [10].
As for `Nc1ncc(-c2cnn(CCO)c2)c2scc(-c3ccc(NC(=O)Nc4cccc(F)c4)cc3)c12`, the GI50 is 0.226 µM in [1]; 0.227 µM in test [2]; 0.162 µM in test [3]; under 0.01 µM in test [4]; 0.499 µM in test [5]; 0.394 µM in test [6]. Besides, the GI50 in [7] was 0.0103 µM; in [9], 0.375 µM; in [10], 0.299 µM. For the same compound, the TGI was 3.7 µM in [1]; 0.733 µM in test [2]; 5.15 µM in test [3]; under 0.0307 µM in test [4]; 5.09 µM in [5]; 3.43 µM in [6]. For the same compound, the figures for the TGI in test [7], in test [9] and in test [10] were 1.19 µM, 3 µM and 11.4 µM, respectively.

The values above are taken from PubChem BioAssay (NCI).
